# According to EP1561465A2, “Methods of use of fluoroquinolone compounds against bacteria” (LG Life Sciences, Ltd., priority 1999, dated 2001):
# Read-outs that look alike come from different tables or passages of the source.
# How the values were obtained:
# Assay type in all cases: cell-based
# Streptococcus pneumoniae [1] = experiment: MIC by agar dilution (NCCLS), 411 isolates Buenos Aires 1998-99; settings: S. pneumoniae
# Streptococcus pneumoniae [2] = experiment: MIC by NCCLS reference broth microdilution, 450 respiratory tract pathogens; settings: for MIC50 / MIC90 / MIC: Streptococcus pneumoniae
# Streptococcus pyogenes = experiment: as above; settings: Streptococcus pyogenes
# Haemophilus influenzae = experiment: as above; settings: Haemophilus influenzae; for MIC90: read-out: MIC90
# Moraxella catarrhalis = experiment: as above
# Staphylococcus aureus = experiment: as above
# Klebsiella pneumoniae = experiment: as above; settings: Klebsiella pneumoniae
# [3] = Streptococcus pneumoniae (n = 100)
# [4] = erythromycin resistant M phenotype (n = 16)
# [5] = erythromycin resistant MLSB phenotype (n = 16)
# [6] = penicillin intermediate (n = 16)
# [7] = penicillin susceptible (n = 20)
# [8] = Streptococcus pyogenes (n = 100)
# [9] = erythromycin resistant C phenotype [MLSB] (n = 20)
# [10] = erythromycin resistant I phenotype [MLSB] (n = 20)
# [11] = erythromycin resistant M phenotype (n = 20)
# [12] = Haemophilus influenzae (n = 100)
# [13] = β-lactamase positive and erythromycin resistant (n = 10)
# [14] = extended spectrum β-lactamase positive (n = 20)
compound,measurement,setting,value
amoxycillin/clavulanate,MIC90,Streptococcus pneumoniae [1]; Penicillin intermediate (n = 17),1 µg/mL
same,MIC90,Streptococcus pneumoniae [1]; Penicillin resistant (n = 4),1 µg/mL
same,MIC90,Streptococcus pneumoniae [1]; Penicillin susceptible (n = 69),0.016 µg/mL
"CO/N=C(\C(=O)N[C@@H]1C(=O)N2C(C(=O)O)=C(COC(N)=O)CS[C@H]12)c1ccco1 [Cefuroxime, cefuroxime]",MIC90,"Streptococcus pneumoniae [1]; Streptococcus pneumoniae, Penicillin intermediate (n = 17), read-out: MIC90",4 µg/mL
same,MIC90,"Streptococcus pneumoniae [1]; Streptococcus pneumoniae, Penicillin resistant (n = 4), read-out: MIC90",4 µg/mL
same,MIC90,"Streptococcus pneumoniae [1]; Streptococcus pneumoniae, Penicillin susceptible (n = 69), read-out: MIC90",0.03 µg/mL
same,MIC Range,Streptococcus pneumoniae [2]; [3],≤0.0075 to 8 µg/mL
same,MIC50,Streptococcus pneumoniae [2]; [3],0.03 µg/mL
same,MIC90,Streptococcus pneumoniae [2]; [3],2 µg/mL
same,MIC,Streptococcus pneumoniae [2]; [4],0.0075 to 0.12 µg/mL
same,MIC50,Streptococcus pneumoniae [2]; [4],0.015 µg/mL
same,MIC90,Streptococcus pneumoniae [2]; [4],0.12 µg/mL
same,MIC,Streptococcus pneumoniae [2]; [5],0.015 to 0.5 µg/mL
same,MIC50,Streptococcus pneumoniae [2]; [5],0.015 µg/mL
same,MIC90,Streptococcus pneumoniae [2]; [5],0.03 µg/mL
same,MIC,Streptococcus pneumoniae [2]; multi-drug resistant (n = 16),0.015 to 0.25 µg/mL
same,MIC50,Streptococcus pneumoniae [2]; multi-drug resistant (n = 16),0.03 µg/mL
same,MIC90,Streptococcus pneumoniae [2]; multi-drug resistant (n = 16),0.03 µg/mL
same,MIC,Streptococcus pneumoniae [2]; [6],0.12 to 8 µg/mL
same,MIC50,Streptococcus pneumoniae [2]; [6],2 µg/mL
same,MIC90,Streptococcus pneumoniae [2]; [6],2 µg/mL
same,MIC,Streptococcus pneumoniae [2]; penicillin resistant (n = 18),2 to 8 µg/mL
same,MIC50,Streptococcus pneumoniae [2]; penicillin resistant (n = 18),2 µg/mL
same,MIC90,Streptococcus pneumoniae [2]; penicillin resistant (n = 18),8 µg/mL
same,MIC,Streptococcus pneumoniae [2]; [7],0.0075 to 0.015 µg/mL
same,MIC50,Streptococcus pneumoniae [2]; [7],0.015 µg/mL
same,MIC90,Streptococcus pneumoniae [2]; [7],0.015 µg/mL
same,MIC,Streptococcus pyogenes; [8],0.00375 to 0.015 µg/mL
same,MIC50,Streptococcus pyogenes; [8],0.0075 µg/mL
same,MIC90,Streptococcus pyogenes; [8],0.015 µg/mL
same,MIC,Streptococcus pyogenes; [9],0.00375 to 0.015 µg/mL
same,MIC50,Streptococcus pyogenes; [9],≤ 0.00375 µg/mL
same,MIC90,Streptococcus pyogenes; [9],0.015 µg/mL
same,MIC,Streptococcus pyogenes; [10],0.00375 to 0.01 µg/mL
same,MIC50,Streptococcus pyogenes; [10],≤ 0.00375 µg/mL
same,MIC90,Streptococcus pyogenes; [10],0.015 µg/mL
same,MIC,Streptococcus pyogenes; [11],0.00375 to 0.015 µg/mL
same,MIC50,Streptococcus pyogenes; [11],≤ 0.00375 µg/mL
same,MIC90,Streptococcus pyogenes; [11],0.015 µg/mL
same,MIC,Streptococcus pyogenes; fully susceptible (n = 20),0.0075 to 0.015 µg/mL
same,MIC50,Streptococcus pyogenes; fully susceptible (n = 20),0.0075 µg/mL
same,MIC90,Streptococcus pyogenes; fully susceptible (n = 20),0.015 µg/mL
same,MIC,Streptococcus pyogenes; multi-drug resistant (n = 20),0.0075 to 0.015 µg/mL
same,MIC90,Streptococcus pyogenes; multi-drug resistant (n = 20),0.015 µg/mL
same,MIC,Haemophilus influenzae; [12],0.12 to 4 µg/mL
same,MIC50,Haemophilus influenzae; [12],0.5 µg/mL
same,MIC90,Haemophilus influenzae; [12],1 µg/mL
same,MIC,Haemophilus influenzae; β-lactamase negative (n = 80),0.25 to 1 µg/mL
same,MIC50,Haemophilus influenzae; β-lactamase negative (n = 80),0.5 µg/mL
same,MIC90,Haemophilus influenzae; β-lactamase negative (n = 80),1 µg/mL
same,MIC,Haemophilus influenzae; β-lactamase positive (n = 20),0.12 to 4 µg/mL
same,MIC50,Haemophilus influenzae; β-lactamase positive (n = 20),0.5 µg/mL
same,MIC90,Haemophilus influenzae; β-lactamase positive (n = 20),1 µg/mL
same,MIC,Moraxella catarrhalis; Moraxella catarrhalis (n = 50),0.00375 to 1 µg/mL
same,MIC50,Moraxella catarrhalis; Moraxella catarrhalis (n = 50),0.25 µg/mL
same,MIC90,Moraxella catarrhalis; Moraxella catarrhalis (n = 50),1 µg/mL
same,MIC,Moraxella catarrhalis; β-lactamase negative (n = 13),0.00375 to 1 µg/mL
same,MIC50,Moraxella catarrhalis; β-lactamase negative (n = 13),0.12 µg/mL
same,MIC90,Moraxella catarrhalis; β-lactamase negative (n = 13),0.5 µg/mL
same,MIC,Moraxella catarrhalis; β-lactamase positive (n = 37),0.00375 to 1 µg/mL
same,MIC50,Moraxella catarrhalis; β-lactamase positive (n = 37),0.25 µg/mL
same,MIC90,Moraxella catarrhalis; β-lactamase positive (n = 37),1 µg/mL
same,MIC,Staphylococcus aureus; Staphylococcus aureus (n = 50),0.00375 to 0.25 µg/mL
same,MIC50,Staphylococcus aureus; Staphylococcus aureus (n = 50),0.25 µg/mL
same,MIC90,Staphylococcus aureus; Staphylococcus aureus (n = 50),0.25 µg/mL
same,MIC,Staphylococcus aureus; β-lactamase negative (n = 20),0.0075 to 0.25 µg/mL
same,MIC50,Staphylococcus aureus; β-lactamase negative (n = 20),0.25 µg/mL
same,MIC90,Staphylococcus aureus; β-lactamase negative (n = 20),0.25 µg/mL
same,MIC,Staphylococcus aureus; β-lactamase positive (n = 20),0.06 to 0.25 µg/mL
same,MIC50,Staphylococcus aureus; β-lactamase positive (n = 20),0.25 µg/mL
same,MIC90,Staphylococcus aureus; β-lactamase positive (n = 20),0.25 µg/mL
same,MIC,Staphylococcus aureus; [13],0.06 to 0.25 µg/mL
same,MIC50,Staphylococcus aureus; [13],0.12 µg/mL
same,MIC90,Staphylococcus aureus; [13],0.25 µg/mL
same,MIC50,Klebsiella pneumoniae; Klebsiella pneumoniae (n = 50),2 µg/mL
same,MIC90,Klebsiella pneumoniae; Klebsiella pneumoniae (n = 50),128 µg/mL
same,MIC50,Klebsiella pneumoniae; [14],128 µg/mL
same,MIC90,Klebsiella pneumoniae; [14],> 128 µg/mL
